From article PMC10915964, “Identifying ligands for the PHD1 finger of KDM5A through high-throughput screening†” (RSC Chemical Biology, 2023)
Blank lines part the entries; values can stand above or below the molecule they belong to. Where no end group is shown, it is not given here. 5‑FAM = 5-carboxyfluorescein

Columns and labels:
15N-labeled PHD1 (KDM5A) = target: T1, 15N-labeled PHD1 (KDM5A) (Homo sapiens, UniProt P29375); experiment: 2D 1H-15N HSQC NMR binding assay; conditions: for perturbation of some residues: most perturbed residues
T1 construct: PHD1(S287-E344) construct; GST (N, cleaved yes); made in house; host or cells: E. coli BL21 (DE3), M9 minimal media with 15N ammonium chloride
T1 sequence (P29375 287-344): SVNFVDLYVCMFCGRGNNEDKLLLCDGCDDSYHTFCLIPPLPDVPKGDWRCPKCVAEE
Protocol: The binding of the ChemBridge screen hits to PHD1 was further evaluated using 2D ^1H–^15N HSQC NMR spectroscopy. This direct binding method allowed us to monitor binding by observing any ligand-induced changes in the previously assigned ^1H–^15N PHD1 amino acid resonances.[12] The HSQC spectra of 50 μM ^15N-labeled PHD1 with DMSO were overlaid with the spectra of the ^15N-labeled PHD1 incubated with 1 mM compound. […] Compound 715 958 was insoluble in the NMR buffer at this concentration and was not evaluated. […]
Nuclear magnetic resonance (NMR) binding assays
A PHD1(S287-E344) construct was used in NMR studies, as previously described.4 Briefly, the GST-PHD1 fusion construct was expressed in M9 minimal media containing 15N ammonium chloride. The labeled GST-PHD1 was purified and the GST tag was cleaved as described in the Expression of GST-PHD1(S287-E344) and GST tag removal section. For 2D 1H, 15N Fast HSQC (FHSQC) binding experiments, 50 μM 15N-labeled PHD1 was used and spectra were measured after the addition of DMSO-d6 or compound at 1 mM in DMSO-d6 for single concentration experiments. The NMR samples were prepared in 50 mM HEPES pH 7.5, 150 mM KCl buffer with 5 mM BME, 100 μM ZnCl2, and 10% D2O at a final concentration of 2.4% DMSO-d6. The HSQC spectra were collected on a 600 MHz Bruker Avance NEO spectrometer equipped with an actively shielded Z-gradient […] TCI cryoprobe using programs from the pulse program library (TopSpin 4.0.6). FHSQC acquisition parameters were: NS = 8, acquisition time = 0.106 s 1H, 0.060 s 15N. All experiments were carried out at 298 K (calibrated with 4% v/v MeOH […]
For 2D 1H, 15N FHSQC titration experiments, 50 μM 15N-labeled PHD1 was incubated with 0, 0.5, 1, 2, or 4 mM B2 sample with a final concentration of 2.9% DMSO-d6 for all samples. The NMR samples were prepared in 50 mM HEPES pH 7.5, 150 mM KCl buffer with 5 mM BME, 100 μM ZnCl2, and 5% D2O. The 2D 15N FHSQC spectra for the titration series were recorded at 298 K on a Bruker 800 MHz AVANCE-I spectrometer equipped with an actively shielded Z-gradient TCI cryoprobe using programs from the pulse program library (TopSpin 4.0.8). FHSQC acquisition parameters were: NS = 8, acquisition time = 0.082 s 1H, 0.045s 15N. The analysis of the chemical shift perturbation of the amide cross-peaks during the titration with the ligand was performed using CCPNMR Analysis software and use PHD1 with 2.9% DMSO-d6 as the reference.7 Apo PHD1 backbone assignments were imported from the BMRB (entry 30808).4 The chemical shift perturbations for all the NMR experiments were calculated in CCPNMR v3.2, which uses the following equation:
∆ chemical shift = ∆H2 + 0.15(∆N)2

[1] = target: T2, GST-PHD1 (PHD1 finger of KDM5A) (Homo sapiens, UniProt P29375); experiment: Competitive-binding fluorescence polarization (FP) assay, displacement of 5-FAM H3K4me0 10-mer from GST-PHD1; conditions: for inhibition at 1000 µM: read-out: %I at 1 mM; for IC50: FP concentration-response, HTS assay conditions, read-out: approximate IC50
T2 construct: GST-PHD1(S287-E344); made in house; host or cells: E. coli BL21 (DE3), pET41a
T2 sequence (P29375 287-344): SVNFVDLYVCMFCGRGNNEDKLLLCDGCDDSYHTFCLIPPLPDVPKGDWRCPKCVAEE
From the text: Fluorescence polarization (FP) has been widely used as a biophysical method to detect and quantify disruptions in protein–protein and protein–peptide interactions.[33,34] It served as the primary assay in the high-throughput screening (HTS) campaign to identify ligands for the PHD1 finger (Fig. 1b). The FP assay includes a GST-labeled […] construct and its H3K4me0 10-mer peptide substrate (Fig. 1c and d).[21,22] […]
Fig. 2 Dose-dependent inhibition of GST-PHD1 − H3 tail interaction by screen hits obtained from HTS of the NCI collection. […] DMSO is used as the negative (−) control (0% inhibition).
Fluorescence polarization high-throughput screening
To test the activity of purified GST-PHD1(S287-E344), direct-binding and competitive-binding fluorescence polarization (FP) were done, as previously described.3,4 For screening, GST-PHD1(S287-E344) was diluted in buffer (50 mM HEPES, pH 7.5, 50 mM KCl, 0.01% Tween-20, 1 mM TCEP) with 20 nM 5-carboxyfluorescein-labeled H3 10-mer peptide and with or without 0.1% bovine gamma globulin (BGG). This was treated as the assay buffer (with 0.1% BGG) and also as the negative control. For the positive control, 120 μM unlabeled H3K4 10-mer peptide was added to the assay buffer. The assay buffer was dispensed using the EL406 Biotek liquid dispenser onto black, round-bottom low volumes 384-microwell plates (Corning 4514) to a final volume of 10 μL per well. DMSO (10 nL or 50 nL) or screening compounds at 10 nL (ChemBridge Premium Diversity collection at 10 μM final) or 50 nL (ML fragments and NCI libraries at 50 μM final) was added to plates containing the assay buffer using the BioMek liquid handler/dispenser. The final DMSO in the samples was either 0.1% or 0.5%. Fluorescence polarization measurements were performed directly and after 45 minutes of incubation at room temperature using a Perkin Elmer Envision and XCite 2105 multimode microplate reader equipped with a stacker. Excitation light was delivered with a xenon flash lamp at 480/30 nm (BW) and emission was collected after passing through an emission filter (535/25 nm). For fluorescence polarization experiments, two 535/40 nm filters (S, P) and dual dichroic D505/D535 nm mirrors were used.
For FP-based assay optimization, the assay signal dynamic range was evaluated using the negative and positive control buffers with varying amounts of GST-PHD1 (0.5, 1, 1.5, or 2 μM) in the presence or absence of 0.1% BGG. For each condition, buffer was dispensed into 3 columns of a 384-well plate (48 wells each) using the BioMek liquid dispenser and the FP signal was recorded. The Z′ value reports on the assay robustness by reflecting both the dynamic range and the data variation associated with assay measurements.5 The Z′ value is given by the following equation: […]
where σ represents the standard deviation, PC represents the positive control, NC represents the negative control, and μ represents the mean value of the FP signal.
Screen results were analyzed using the UCSF SMDC web application called HiTS […]
(http://smdc.ucsf.edu/hits/). […]
equal to 3 standard deviations of the mean percent inhibition values, where the negative control is set to 0% inhibition and the positive control is set to 100% inhibition. Cheminformatics analysis on the screen hits was done using DataWarrior, an open-source program for data visualization and analysis with chemical intelligence.6 The Tanimoto coefficient was used to gauge the similarity and diversity of screen hits and cluster any compounds with greater than 75% similarity.
Screen hits were repurchased when available. Structurally similar derivatives were purchased when exact compounds were not available for purchase. Compound purity was confirmed by LCMS. All compounds were dissolved in DMSO-d6 to a final concentration of 40 mM unless otherwise specified. All putative screen hits were confirmed in dose-response using the competitive binding fluorescence polarization […]
assay. […]

[2] = Solubility in the NMR buffer; format: physicochemical; conditions: 1 mM in 50 mM HEPES pH 7.5, 150 mM KCl NMR buffer
Protocol: The binding of the ChemBridge screen hits to PHD1 was further evaluated using 2D ^1H–^15N HSQC NMR spectroscopy. This direct binding method allowed us to monitor binding by observing any ligand-induced changes in the previously assigned ^1H–^15N PHD1 amino acid resonances.[12] The HSQC spectra of 50 μM ^15N-labeled PHD1 with DMSO were overlaid with the spectra of the ^15N-labeled PHD1 incubated with 1 mM compound. […] Compound 715 958 was insoluble in the NMR buffer at this concentration and was not evaluated.
The six NCI screen hits confirmed by dose response in the FP assay were further evaluated by 2D ^1H–^15N HSQC NMR at 1 mM to assess their direct binding to PHD1 (Fig. S5, ESI ^†). Compound 990 670 was insoluble in the NMR buffer and was excluded from further consideration. Out of the five compounds evaluated, 991 830, 990 856, and 988 385 caused very minor CSP on PHD1 (average shifts ≤ 0.002 ppm; Fig. S5a–c, ESI ^†). […] The observed perturbations are low, but in the range of those induced by competitive binding fragment ligands evaluated at 5 mM with the PHD finger of BAZ2B, for which the perturbations observed were up to 0.035 ppm.[19] Residue Cys322, one of the Zn(II) ligands in the first zinc finger in PHD1, is the most affected by the presence of oxazepine 516 969 (Δδ of 0.009 ppm; Fig. S5d, ESI ^†). […]

[3] = target: GST-labeled PHD1(S283-E344) construct of KDM5A; experiment: fluorescence polarisation; direct binding of C-terminal 5-FAM H3 10-mer peptide to GST-PHD1; triplicate measurements
[4] = target: GST-labeled PHD1(S283-E344) construct of KDM5A (two Zn(II) ions bound (PHD zinc finger)); experiment: fluorescence polarisation; competitive displacement of 5-FAM H3 10-mer (10 nM) from GST-PHD1 (2 μM) by unlabeled H3 10-mer peptide; triplicate measurements; conditions: both partners purified
[5] = 1 mM compound, quadruplicate (n = 1 for R1 = OBn; n = 2 for R1 = Me)

- average shifts (CSP on PHD1) (15N-labeled PHD1 (KDM5A); 50 μM 15N PHD1, 1 mM compound): 0.0025–0.0033 ppm
- Δδ of residue Cys322 (15N-labeled PHD1 (KDM5A); 50 μM 15N PHD1, 1 mM compound): 0.009 ppm
- perturbation of some residues (15N-labeled PHD1 (KDM5A); 50 μM 15N PHD1, 1 mM compound): greater than 0.008 ppm
Molecule: CSc1nnc2c(n1)OC(c1ccncc1)Nc1ccccc1-2 (stereo not drawn) [516 969]

- average shifts (CSP on PHD1) (15N-labeled PHD1 (KDM5A); 50 μM 15N PHD1, 1 mM compound): ≤ 0.002 ppm
- Δδ of residue N304 (15N-labeled PHD1 (KDM5A); 50 μM 15N PHD1, 1 mM compound): > 0.01 ppm
Molecule: CCc1nnc(NS(=O)(=O)c2ccc(NC(=O)c3ccc(OC)c(OC)c3)cc2)s1 [988 385]

- average shifts (CSP on PHD1) (15N-labeled PHD1 (KDM5A); 50 μM 15N PHD1, 1 mM compound): 0.0025–0.0033 ppm
- perturbation of some residues (15N-labeled PHD1 (KDM5A); 50 μM 15N PHD1, 1 mM compound): greater than 0.008 ppm
- inhibition at 1000 µM [1, 5]: 45%
- IC50 [1]: > 1500 µM
Molecule: Cc1oc2ccc(NS(=O)(=O)c3ccc(C(=O)O)cc3)cc2c1C(=O)OCc1ccccc1 [990 099]

- solubility in the NMR buffer [2]: insoluble
Molecule: Cc1ccc(N2CC(c3nnc(NC(=O)c4c(-c5ccccc5)noc4C)s3)CC2=O)cc1C (stereo not drawn) [990 670]

- average shifts (CSP on PHD1) (15N-labeled PHD1 (KDM5A); 50 μM 15N PHD1, 1 mM compound): ≤ 0.002 ppm
Molecule: O=C(C1CC1)N1CCc2sc(S(=O)(=O)Nc3cccc(Cl)c3F)cc2C1 [990 856]

- average shifts (CSP on PHD1) (15N-labeled PHD1 (KDM5A); 50 μM 15N PHD1, 1 mM compound): ≤ 0.002 ppm
Molecule: Cc1c(CCC(=O)N2CCCC2C(=O)O)c(=O)oc2c(C)c(O)ccc12 (stereo not drawn) [991 830]

- chemical shift perturbations on PHD1 in titration (15N-labeled PHD1 (KDM5A); B2 at 0.5, 1, 2 and 4 mM with 50 μM 15N PHD1): chemical shift perturbations are small
- %I at 1 mM [1, 5]: 45%
- inhibition at 1000 µM [1, 5]: 45%
- IC50 [1]: ~1300 µM
Molecule: CC(=O)c1c(C)oc2ccc(NS(=O)(=O)c3cccc(C(=O)O)c3)cc12 [Compound B2, 3-(N-(3-acetyl-2-methylbenzofuran-5-yl)sulfamoyl)benzoic acid]

- Kd [3]: 0.95 µM
Molecule: ARTKQTARKS-{5‑FAM} [C-terminal 5-FAM H3 10-mer peptide, P68431 2-11]

- Ki [4]: 0.95 ± 0.14 µM
B1: unlabeled H3 10-mer peptide (peptide, UniProt P68431 2-11, looked up)
peptide: ARTKQTARKS
notes: histone H3 N-terminal tail 10-mer with unmodified K4 (H3K4me0); also called unlabeled H3K4me0 10-mer; H3K4me0 10-mer peptide
